From patent US20200405696A1, “INHIBITORS OF INDOLEAMINE 2,3-DIOXYGENASE AND/OR TRYPTOPHAN 2,3-DIOXYGENASE” (IDORSIA PHARMACEUTICALS LTD, priority 2018, published 2020)

Tests used:
[1] = molecular target: T1, Recombinant full-length human IDO1 (Homo sapiens, UniProt P14902); assay: IDO1 enzymatic assay (NFK quantified by LCMS); format: biochemical; details: 2 nM enzyme, 5 μM L-tryptophan, pH6.5, 30 minutes pre-incubation at RT; mean values when measured multiple times; read-out: hIDO activity (IC50 in nM)
T1 construct: Recombinant full-length human IDO1 with a N-terminal hexahistidine tag; hexahistidine (His6) (N); made in house; host or cells: E. coli
Procedure, shortened: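 His-tagged human IDO1 (2 nM) in pH 6.5 phosphate buffer with ascorbate, methylene blue and catalase was preincubated with compound (10 μM–0.5 nM, 0.6% DMSO) for 30 min at RT. The reaction then ran with 5 μM L-Trp for 30 min. NFK was measured by LCMS against a d5-Trp standard, and IC50 was obtained by four-parameter fit.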

[2] = molecular target: T2, Recombinant human TDO comprising amino acids 19-407 (Homo sapiens, UniProt P48775); assay: TDO2 enzymatic assay (NFK quantified by LCMS); format: biochemical; details: 15 nM enzyme, 200 μM L-tryptophan, pH7, 30 minutes pre-incubation at RT; mean values when measured multiple times; read-out: hTDO activity (IC50 in nM)
T2 construct: Recombinant human TDO comprising amino acids 19-407 with a N-terminal hexahistidine tag; hexahistidine (His6) (N); made in house; host or cells: E. coli
Procedure, shortened: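 NFK formed over 30 min at RT from 200 μM L-tryptophan was measured by LCMS, normalized to d5-tryptophan, after compound (0.5 nM–10 μM, duplicates, 0.6% DMSO) was preincubated 30 min with 15 nM recombinant His-tagged TDO 19-407 in phosphate buffer pH 7. IC50 from four-parameter logistic fit; repeats averaged.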

T1 sequence (P14902 whole entry): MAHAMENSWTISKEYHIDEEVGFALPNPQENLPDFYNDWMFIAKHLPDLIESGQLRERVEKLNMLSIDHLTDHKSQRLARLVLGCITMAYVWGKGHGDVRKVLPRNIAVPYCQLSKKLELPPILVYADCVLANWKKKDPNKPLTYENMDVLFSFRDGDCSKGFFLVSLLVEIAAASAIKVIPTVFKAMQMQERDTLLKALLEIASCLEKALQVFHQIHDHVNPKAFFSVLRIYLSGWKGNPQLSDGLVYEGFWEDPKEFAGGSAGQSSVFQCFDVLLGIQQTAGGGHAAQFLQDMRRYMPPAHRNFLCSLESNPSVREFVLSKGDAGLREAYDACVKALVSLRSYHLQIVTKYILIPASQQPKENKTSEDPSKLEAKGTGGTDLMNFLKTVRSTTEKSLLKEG
T2 sequence (P48775 19-406 limits assumed): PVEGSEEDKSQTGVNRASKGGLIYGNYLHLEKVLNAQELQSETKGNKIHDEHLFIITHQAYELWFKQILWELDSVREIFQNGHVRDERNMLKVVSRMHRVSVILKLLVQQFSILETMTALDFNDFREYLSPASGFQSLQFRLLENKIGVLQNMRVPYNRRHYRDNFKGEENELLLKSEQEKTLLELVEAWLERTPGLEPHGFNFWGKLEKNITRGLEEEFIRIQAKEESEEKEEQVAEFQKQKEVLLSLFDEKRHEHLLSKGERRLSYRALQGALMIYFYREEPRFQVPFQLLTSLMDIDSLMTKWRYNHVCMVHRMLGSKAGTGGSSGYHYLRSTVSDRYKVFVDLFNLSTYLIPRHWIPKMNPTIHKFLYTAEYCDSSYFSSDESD

IC50 [1] | IC50 [2] | Compound
199 nM | 2620 nM | Oc1ccc(-n2cc(C(O)c3c(C4CC4)sc4cncn34)nn2)c(OC(F)(F)F)c1 (racemic) [Example 213, rac-4-{4-[(2-Cyclopropyl-imidazo[5,1-b]thiazol-3-yl)-hydroxy-methyl]-[1,2,3]triazol-1-yl}-3-trifluoromethoxy-phenol]
186 nM | 864 nM | Cc1sc2cncn2c1C(O)c1cnn(-c2ccccc2)c1C (racemic) [Example 98, rac-(2-Methyl-imidazo[5,1-b]thiazol-3-yl)-(5-methyl-1-phenyl-1H-pyrazol-4-yl)-methanol]
23.1 nM | > 10200 nM | COc1cc(-n2cc(C(O)c3c(C4CC4)sc4cncn34)nn2)c(OC)nn1 (racemic) [Example 86, rac-(2-Cyclopropyl-imidazo[5,1-b]thiazol-3-yl)-[1-(3,6-dimethoxy-pyridazin-4-yl)-1H-[1,2,3]triazol-4-yl]-methanol]
16 nM | > 10200 nM | COC(=O)c1ccc(Cn2cc(C(O)c3c(C4CC4)sc4cncn34)nn2)cc1 (racemic) [Example 297, rac-4-{4-[(2-Cyclopropyl-imidazo[5,1-b]thiazol-3-yl)-hydroxy-methyl]-[1,2,3]triazol-1-ylmethyl}-benzoic acid methyl ester]
14 nM | > 10200 nM | COc1ccc(-n2cc(C(O)c3c(C4CC4)sc4cncn34)nn2)cc1C#N (racemic) [Example 135, rac-5-{4-[(2-Cyclopropyl-imidazo[5,1-b]thiazol-3-yl)-hydroxy-methyl]-[1,2,3]triazol-1-yl}-2-methoxy-benzonitrile]
14.3 nM | 7720 nM | CCNC(=O)Nc1ccc(-n2cc(C(O)c3c(CC)sc4cncn34)nn2)cc1OC (racemic) [Example 113, rac-1-Ethyl-3-(4-{4-[(2-ethyl-imidazo[5,1-b]thiazol-3-yl)-hydroxy-methyl]-[1,2,3]triazol-1-yl}-2-methoxy-phenyl)-urea]
17.2 nM | > 10200 nM | OC(c1cn(-c2ccc3[nH]ncc3c2)nn1)c1c(C2CC2)sc2cncn12 (racemic) [Example 253, rac-(2-Cyclopropyl-imidazo[5,1-b]thiazol-3-yl)-[1-(1H-indazol-5-yl)-1H-[1,2,3]triazol-4-yl]-methanol]
4.55 nM | 7180 nM | Oc1cc(F)c(-n2cc(C(O)c3c(C4CC4)sc4cncn34)nn2)cc1F (racemic) [Example 331, rac-4-{4-[(2-Cyclopropyl-imidazo[5,1-b]thiazol-3-yl)-hydroxy-methyl]-[1,2,3]triazol-1-yl}-2,5-difluoro-phenol]
40.8 nM | 6810 nM | CCc1sc2cncn2c1C(O)c1cn(-c2ccc(NC(=O)OC(C)(C)C)cc2F)nn1 (racemic) [Example 245, rac-(4-{4-[(2-Ethyl-imidazo[5,1-b]thiazol-3-yl)-hydroxy-methyl]-[1,2,3]triazol-1-yl}-3-fluoro-phenyl)-carbamic Acid Tert-Butyl Ester]
49.2 nM | > 10200 nM | Cc1ccccc1-n1cc(C(O)c2c(C3CC3)sc3cncn23)nn1 (racemic) [Example 3, rac-(2-Cyclopropyl-imidazo[5,1-b]thiazol-3-yl)-(1-o-tolyl-1H-[1,2,3]triazol-4-yl)-methanol]
4.63 nM | > 10200 nM | O[C@@H](c1cn(-c2ccc(OCC3CCOCC3)c(Cl)c2)nn1)c1c(C2CC2)sc2cncn12 [Example 276, (R)-{1-[3-Chloro-4-(tetrahydro-pyran-4-ylmethoxy)-phenyl]-1H-[1,2,3]triazol-4-yl}-(2-cyclopropyl-imidazo[5,1-b]thiazol-3-yl)-methanol]
19.5 nM | > 10200 nM | CC1(c2sc3cncn3c2C(O)c2cn(-c3ccc(OCC4(F)COC4)c(Cl)c3)nn2)CC1 (racemic) [Example 315, rac-{1-[3-Chloro-4-(3-fluoro-oxetan-3-ylmethoxy)-phenyl]-1H-[1,2,3]triazol-4-yl}-[2-(1-methyl-cyclopropyl)-imidazo[5,1-b]thiazol-3-yl]-methanol]
15.8 nM | > 10200 nM | Cc1cc(-n2cc(C(O)c3c(C4CC4)sc4cncn34)nn2)ccc1O (racemic) [Example 211, rac-4-{4-[(2-Cyclopropyl-imidazo[5,1-b]thiazol-3-yl)-hydroxy-methyl]-[1,2,3]triazol-1-yl}-2-methyl-phenol]
25 nM | > 10200 nM | COc1ccc(-n2cc(C(O)c3c([C@@H]4C[C@@H]4F)sc4cncn34)nn2)cc1 (relative stereo) [Example 93, [2-(cis-2-Fluoro-cyclopropyl)-imidazo[5,1-b]thiazol-3-yl]-[1-(4-methoxy-phenyl)-1H-[1,2,3]triazol-4-yl]-methanol]
12.3 nM | > 10200 nM | CCc1sc2cncn2c1C(O)c1cn(-c2ccc(OCC3CC3)cc2)nn1 (racemic) [Example 54, rac-[1-(4-Cyclopropylmethoxy-phenyl)-1H-[1,2,3]triazol-4-yl]-(2-ethyl-imidazo[5,1-b]thiazol-3-yl)-methanol]
36.1 nM | > 10200 nM | COc1ccc(-n2cc(C(O)c3c(C4CC4)sc4cncn34)nn2)c(OC)n1 (racemic) [Example 81, rac-(2-Cyclopropyl-imidazo[5,1-b]thiazol-3-yl)-[1-(2,6-dimethoxy-pyridin-3-yl)-1H-[1,2,3]triazol-4-yl]-methanol]
587 nM | > 10200 nM | COc1ccccc1-c1ccc(C(O)c2c(C3CC3)sc3cncn23)s1 (racemic) [Example 166, rac-(2-Cyclopropyl-imidazo[5,1-b]thiazol-3-yl)-[5-(2-methoxy-phenyl)-thiophen-2-yl]-methanol]
95 nM | > 10200 nM | Cn1cc(-n2cc(C(O)c3c(C4CC4)sc4cncn34)nn2)cn1 (racemic) [Example 43, rac-(2-Cyclopropyl-imidazo[5,1-b]thiazol-3-yl)-[1-(1-methyl-1H-pyrazol-4-yl)-1H-[1,2,3]triazol-4-yl]-methanol]
8.46 nM | > 10200 nM | CC(C)(O)CCOc1ccc(-n2cc(C(O)c3c(C4CC4)sc4cncn34)nn2)cc1 (racemic) [Example 140, rac-4-(4-{4-[(2-Cyclopropyl-imidazo[5,1-b]thiazol-3-yl)-hydroxy-methyl]-[1,2,3]triazol-1-yl}-phenoxy)-2-methyl-butan-2-ol]
28.7 nM | 2710 nM | CCc1sc2cncn2c1C(O)c1cn(-c2ccc(NC(=O)c3ccccc3)cc2)nn1 (racemic) [Example 230, rac-N-(4-{4-[(2-Ethyl-imidazo[5,1-b]thiazol-3-yl)-hydroxy-methyl]-[1,2,3]triazol-1-yl}-phenyl)-benzamide]
52.4 nM | > 10200 nM | COc1cc(C#N)cc(-n2cc(C(O)c3c(C4CC4)sc4cncn34)nn2)c1 (racemic) [Example 197, rac-3-{4-[(2-Cyclopropyl-imidazo[5,1-b]thiazol-3-yl)-hydroxy-methyl]-[1,2,3]triazol-1-yl}-5-methoxy-benzonitrile]
63.6 nM | > 10200 nM | CNS(=O)(=O)c1ccc(-n2cc(C(O)c3c(C4CC4)sc4cncn34)nn2)cc1 (racemic) [Example 226, rac-4-{4-[(2-Cyclopropyl-imidazo[5,1-b]thiazol-3-yl)-hydroxy-methyl]-[1,2,3]triazol-1-yl}-N-methyl-benzenesulfonamide]
39.6 nM | > 10200 nM | N#Cc1ccc(-n2cc(C(O)c3c(C4CC4)sc4cncn34)nn2)cc1 (racemic) [Example 11, rac-4-{4-[(2-Cyclopropyl-imidazo[5,1-b]thiazol-3-yl)-hydroxy-methyl]-[1,2,3]triazol-1-yl}-benzonitrile]
18.3 nM | > 10200 nM | CC(=O)Nc1ccc(-n2cc(C(O)c3c(C4CC4)sc4cncn34)nn2)cc1 (racemic) [Example 95, rac-N-(4-{4-[(2-Cyclopropyl-imidazo[5,1-b]thiazol-3-yl)-hydroxy-methyl]-[1,2,3]triazol-1-yl}-phenyl)-acetamide]
20 nM | > 10200 nM | CC(C)Oc1ccc(-n2cc(C(O)c3c(C4CC4)sc4cncn34)nn2)cc1 (racemic) [Example 33, rac-(2-Cyclopropyl-imidazo[5,1-b]thiazol-3-yl)-[1-(4-isopropoxy-phenyl)-1H-[1,2,3]triazol-4-yl]-methanol]
13 nM | > 10200 nM | CC(F)(F)c1sc2cncn2c1C(O)c1cn(-c2ccc(OCC3(F)COC3)c(Cl)c2)nn1 (racemic) [Example 316, rac-{1-[3-Chloro-4-(3-fluoro-oxetan-3-ylmethoxy)-phenyl]-1H-[1,2,3]triazol-4-yl}-[2-(1,1-difluoro-ethyl)-imidazo[5,1-b]thiazol-3-yl]-methanol]
35.5 nM | > 10200 nM | OC(c1cn(-c2cnc3c(c2)CCCO3)nn1)c1c(C2CC2)sc2cncn12 (racemic) [Example 72, rac-(2-Cyclopropyl-imidazo[5,1-b]thiazol-3-yl)-[1-(3,4-dihydro-2H-pyrano[2,3-b]pyridin-6-yl)-1H-[1,2,3]triazol-4-yl]-methanol]
